The source of these data is patent US12084437B2, “Halo-substituted piperidines as orexin receptor modulators” (AstraZeneca AB, priority 2016, dated 2024).

One assay deals with T1, OX1 (Homo sapiens, UniProt O43613).
T1 construct: expressed in transfected cells; host or cells: CHO (CHO-OX1)
T1 sequence (O43613 1-425): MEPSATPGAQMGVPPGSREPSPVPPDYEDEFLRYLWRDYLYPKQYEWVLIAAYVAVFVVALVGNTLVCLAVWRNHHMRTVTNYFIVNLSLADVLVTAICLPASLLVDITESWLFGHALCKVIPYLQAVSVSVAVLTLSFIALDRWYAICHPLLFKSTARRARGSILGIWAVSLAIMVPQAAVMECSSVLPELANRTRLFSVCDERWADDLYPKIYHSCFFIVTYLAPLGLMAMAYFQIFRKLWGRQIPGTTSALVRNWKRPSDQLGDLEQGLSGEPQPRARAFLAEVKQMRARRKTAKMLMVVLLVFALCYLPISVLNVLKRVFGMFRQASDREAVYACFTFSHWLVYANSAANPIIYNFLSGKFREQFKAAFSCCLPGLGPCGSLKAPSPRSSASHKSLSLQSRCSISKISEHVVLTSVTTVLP
Put plainly: Orexin receptor cell-based functional assay, [Ca2+]i by FLIPR, CHO-OX1 cells. Particulars: FLIPR calcium, antagonism of EC90 of [OX], read-out: OXI, IC50.

In another assay the target is T2, OX2 (Homo sapiens, UniProt O43614).
T2 construct: expressed in transfected cells; host or cells: CHO (CHO-OX2)
T2 sequence (O43614 1-444): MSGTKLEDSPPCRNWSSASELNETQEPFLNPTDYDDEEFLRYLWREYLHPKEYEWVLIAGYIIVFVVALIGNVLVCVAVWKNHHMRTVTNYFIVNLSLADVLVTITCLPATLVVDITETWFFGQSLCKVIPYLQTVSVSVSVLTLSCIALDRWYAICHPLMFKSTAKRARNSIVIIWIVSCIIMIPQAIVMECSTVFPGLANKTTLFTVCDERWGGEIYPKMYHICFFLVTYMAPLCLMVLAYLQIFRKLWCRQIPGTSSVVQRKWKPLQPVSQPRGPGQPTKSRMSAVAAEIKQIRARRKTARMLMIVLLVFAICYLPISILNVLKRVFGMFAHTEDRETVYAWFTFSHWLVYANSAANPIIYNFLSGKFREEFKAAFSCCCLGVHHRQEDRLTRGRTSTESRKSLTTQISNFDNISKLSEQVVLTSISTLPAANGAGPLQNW
The assay is described as follows: Orexin receptor cell-based functional assay, [Ca2+]i by FLIPR, CHO-OX2 cells. Particulars: FLIPR calcium, antagonism of EC90 of [OX]. In outline:
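CHO cells expressing human OX1 or OX2 (20,000/well, grown overnight) were loaded with Calcium6 dye plus 2.5 mM probenecid for 2 h at 37 °C, then preincubated 30 min with compound (0.1 nM–10 µM). FLIPR fluorescence (ex 488/em 540 nm) was tracked before and after an EC90 orexin challenge.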

In the case of `COc1cccc(-c2sc(C)nc2C(=O)N2CC(F)(F)C[C@@H](C)[C@H]2CNc2cnc(C(F)(F)F)cn2)n1` [Compound 151], the figures for the IC50 at OX1 and at OX2 were 0.011 µM and > 5 µM, respectively.
Regarding `Cc1ccc(-n2nccn2)c(C(=O)N2CC(F)(F)C[C@@H](C)[C@H]2CNc2cnc(C(F)(F)F)cn2)n1` [Compound 153], the IC50 is 0.027 µM at OX1 and > 5 µM on OX2.
As to `C[C@@H]1CC(F)(F)CN(C(=O)c2cc(Cl)ccc2-n2nccn2)[C@@H]1CNc1cnc(C(F)(F)F)cn1` [Compound 154], the IC50 at OX1 is 0.012 µM; at OX2, > 5 µM.
For `C[C@@H]1CC(F)(F)CN(C(=O)c2nn(C)cc2-c2cccnc2)[C@@H]1CNc1cnc(C(F)(F)F)cn1` [Compound 155] the same measures were 0.038 µM and > 5 µM.
For `Cc1nc(C(=O)N2CC(F)(F)C[C@@H](C)[C@H]2CNc2cnc(C(F)(F)F)cn2)c(-c2cccnc2)o1` [Compound 156] the same measures were > 1 µM and > 5 µM.
For `Cc1nc(C(=O)N2CC(F)(F)C[C@@H](C)[C@H]2CNc2cnc(C(F)(F)F)cn2)c(-c2ccccc2)o1` [Compound 157] the same measures were 0.186 µM and > 5 µM.
Turning to `C[C@@H]1CC(F)(F)CN(C(=O)c2cn(C)nc2-c2ccccn2)[C@@H]1CNc1cnc(C(F)(F)F)cn1` [Compound 158], the 50% inhibitory concentration (IC50) at OX1 was 0.062 µM; at OX2, > 5 µM.
Taken in the same sequence, the figures for `C[C@@H]1CC(F)(F)CN(C(=O)c2cc(Cl)ccc2-c2nnn(C)n2)[C@@H]1CNc1cnc(C(F)(F)F)cn1` [Compound 161] were 0.009 µM and > 5 µM.
For `C[C@@H]1CC(F)(F)CN(C(=O)c2nn(C)cc2-c2ccccn2)[C@@H]1CNc1ccc(C(F)(F)F)cn1` [Compound 167] the same measures were 0.005 µM and > 5 µM.
For `C[C@@H]1CC(F)(F)CN(C(=O)c2nn(C)cc2-c2ccc(F)cc2)[C@@H]1CNc1ccc(C(F)(F)F)cn1` [Compound 169] the same measures were 0.002 µM and > 5 µM.
Turning to `Cc1ccc(-n2nccn2)c(C(=O)N2CC(F)(F)C[C@@H](C)[C@H]2CNc2ccc(C(F)(F)F)cn2)n1` [Compound 174], the half-inhibitory concentration (IC50) was 0.004 µM at OX1 and > 5 µM on OX2.
Consider `Cc1ccc(-c2cn(C)nc2C(=O)N2CC(F)(F)C[C@@H](C)[C@H]2CNc2ccc(C(F)(F)F)cn2)cc1` [Compound 175], for which the IC50 at OX1 stood at 0.004 µM; on OX2, 4.14 µM.
Taken in the same sequence, the figures for `COc1ccc(-c2cn(C)nc2C(=O)N2CC(F)(F)C[C@@H](C)[C@H]2CNc2ccc(C(F)(F)F)cn2)cc1` [Compound 177] were 0.006 µM and 0.17 µM.
`Cc1ccc(-c2ncccn2)c(C(=O)N2CC(F)(F)C[C@@H](C)[C@H]2CNc2ccc(C(F)(F)F)cn2)n1` [Compound 183, ((2S,3R)-5,5-difluoro-3-methyl-2-(((5-(trifluoromethyl)pyridin-2-yl)amino)methyl)piperidin-1-yl)(6-methyl-3-(pyrimidin-2-yl)pyridin-2-yl)methanone]: the figures for the half-inhibitory concentration (IC50) on OX1 and at OX2 were 0.012 µM and > 5 µM, respectively.
For `Cc1ccc(-c2sc(C)nc2C(=O)N2CC(F)(F)C[C@@H](C)[C@H]2CNc2ccc(C(F)(F)F)cn2)cc1` [Compound 186] the same measures were 0.006 µM and > 5 µM.
For the compound `Cc1cccc(-c2sc(C)nc2C(=O)N2CC(F)(F)C[C@@H](C)[C@H]2CNc2ccc(C(F)(F)F)cn2)c1` [Compound 187], the results for the concentration for half-maximal inhibition (IC50) at OX1 and on OX2 were 0.007 µM and 3 µM, respectively.
Taken in the same sequence, the figures for `C[C@@H]1CC(F)(F)CN(C(=O)c2nn(C)cc2-c2ncccn2)[C@@H]1CNc1ccc(C(F)(F)F)cn1` [Compound 200, ((2S,3R)-5,5-difluoro-3-methyl-2-(((5-(trifluoromethyl)pyridin-2-yl)amino)methyl)piperidin-1-yl)(1-methyl-4-(pyrimidin-2-yl)-1H-pyrazol-3-yl)methanone] were 0.004 µM and > 5 µM.
Taken in the same sequence, the figures for `COc1ccc(-n2nccn2)c(C(=O)N2CC(F)(F)C[C@@H](C)[C@H]2CNc2ccc(C(F)(F)F)cn2)n1` [Compound 202, ((2S,3R)-5,5-difluoro-3-methyl-2-(((5-(trifluoromethyl)pyridin-2-yl)amino)methyl)piperidin-1-yl)(6-methoxy-3-(2H-1,2,3-triazol-2-yl)pyridin-2-yl)methanone] were 0.15 µM and > 5 µM.
Take `C[C@@H]1CC(F)(F)CN(C(=O)c2nc(C(F)(F)F)ccc2-n2nccn2)[C@@H]1CNc1ccc(C(F)(F)F)cn1` [Compound 203, (3-(2H-1,2,3-triazol-2-yl)-6-(trifluoromethyl)pyridin-2-yl)((2S,3R)-5,5-difluoro-3-methyl-2-(((5-(trifluoromethyl)pyridin-2-yl)amino)methyl)piperidin-1-yl)methanone]: the concentration for half-maximal inhibition (IC50) at OX1 was > 5 µM; on OX2, 3.7 µM.
For `Cc1ccc(-n2nccn2)c(C(=O)N2CC(F)(F)C[C@@H](C)[C@H]2COc2ccc(C(F)(F)F)cn2)n1` [Compound 204, ((2S,3R)-5,5-difluoro-3-methyl-2-(((5-(trifluoromethyl)pyridin-2-yl)oxy)methyl)piperidin-1-yl)(6-methyl-3-(2H-1,2,3-triazol-2-yl)pyridin-2-yl)methanone] the same measures were 0.04 µM and > 5 µM.
Taken in the same sequence, the figures for `C[C@@H]1CC(F)(F)CN(C(=O)c2nn(C)cc2-c2ccc(F)cc2)[C@@H]1COc1ccc(C(F)(F)F)cn1` [Compound 205, ((2S,3R)-5,5-difluoro-3-methyl-2-(((5-(trifluoromethyl)pyridin-2-yl)oxy)methyl)piperidin-1-yl)(4-(4-fluorophenyl)-1-methyl-1H-pyrazol-3-yl)methanone] were 0.052 µM and > 5 µM.
For `C[C@@H]1CC(F)(F)CN(C(=O)c2cn(C)nc2-c2ccccc2)[C@@H]1COc1ncc(C(F)(F)F)cn1` [Compound 209] the same measures were 0.28 µM and > 5 µM.
Turning to `Cc1ccc(-c2ncccn2)c(C(=O)N2CC(F)(F)C[C@@H](C)[C@H]2COc2ccc(C(F)(F)F)cn2)n1` [Compound 215, ((2S,3R)-5,5-difluoro-3-methyl-2-(((5-(trifluoromethyl)pyridin-2-yl)oxy)methyl)piperidin-1-yl)(6-methyl-3-(pyrimidin-2-yl)pyridin-2-yl)methanone], the IC50 on OX1 was 0.005 µM; at OX2 it was > 5 µM.
As for `C[C@@H]1CC(F)(F)CN(C(=O)c2cc(Cl)ccc2-c2nnn(C)n2)[C@@H]1COc1ccc(C(F)(F)F)cn1` [Compound 216, (5-chloro-2-(2-methyl-2H-tetrazol-5-yl)phenyl)((2S,3R)-5,5-difluoro-3-methyl-2-(((5-(trifluoromethyl)pyridin-2-yl)oxy)methyl)piperidin-1-yl)methanone], the IC50 on OX1 is 0.004 µM; on OX2 it was > 5 µM.
Take `C[C@@H]1CC(F)(F)CN(C(=O)c2nn(C)cc2-c2ncc(F)cn2)[C@@H]1CNc1ncc(C(F)(F)F)cn1` [Compound 217, ((2S,3R)-5,5-difluoro-3-methyl-2-(((5-(trifluoromethyl)pyrimidin-2-yl)amino)methyl)piperidin-1-yl)(4-(5-fluoropyrimidin-2-yl)-1-methyl-1H-pyrazol-3-yl)methanone]: the IC50 on OX1 was 0.004 µM; at OX2, > 5 µM.

By IC50 is commonly meant the midpoint of a concentration-inhibition curve.
